Results on 2 molecules are retold here after patent US7314624B2 (priority 2001, dated 2008).

Holding throughout (format): cell-based
Test [1] concerns Influenza virus A/AA/6/60.
The subject of test [2] is S. dysenteriae. The following applies: 15 minutes; bacteria alone 910,000 CFU; X8P 1/100 dilution; EDTA 50-25 μM.
Test [3] has as its system S. typhimurium.

Take “4-(1,1,3,3-Tetramethylbutyl)phenvl-polyethylene glycol [TRITON X-100]”: in test [1], the “inhibition of infectivity of influenza A virus” value was “only partially inhibited” and the “reduction of influenza A infection of MDCK cells” value was “completely ineffective”.
Consider `O=C(O)CN(CCN(CC(=O)O)CC(=O)O)CC(=O)O` [EDTA, ethylenediamine-tetraacetic acid], for which the figures for the “bacterial count after treatment (CFU)” value in test [2] and in test [3] were 320,000 CFU and 790,000 CFU, respectively.
